{"source": "patent US9846167B2", "about": "(priority 2013, dated 2017)", "key": {"[1]": {"assay_type": "binding", "conditions": "hydroxyapatite nanoparticles in PBS, single stain, FIG. 1", "description": "Samples were analyzed using the Apogee A50 Nanoscale Flow Cytometer.\nAn isotype negative control was prepared for each Alendronate compound. […] (AL-Cy5) was Notdronate-Cy5 (NT-Cy5)."}, "[2]": {"conditions": "single stain"}}, "note": "Where two headings read alike, the source gives them in different places.", "data": [{"substance": "FITC alendronate [AL-FITC]", "values": [{"measurement": "probe-positive events (AL-positive / NT-positive background)", "setting": "[1]", "value": "significantly higher AL-positive events"}]}, {"substance": "Sulfo-Cy5 alendronate [AL-Cy5]", "values": [{"measurement": "probe-positive events (AL-positive / NT-positive background)", "setting": "[1]", "value": "significantly higher AL-positive events"}]}, {"substance": "fluorescein-4-butanol [NT-FITC]", "values": [{"measurement": "probe-positive events (AL-positive / NT-positive background)", "setting": "[1]", "value": "minimal"}, {"measurement": "probe-positive events, probe versus its isotype negative control", "setting": "[2]; MGUS patient plasma, FIG. 4", "value": "higher count of events"}, {"measurement": "probe-positive events, probe versus its isotype negative control", "setting": "[2]; Multiple Myeloma patient plasma, FIG. 8", "value": "higher count of events"}, {"measurement": "probe-positive events", "setting": "[2]; healthy volunteer plasma, FIG. 2", "value": "significantly higher"}, {"measurement": "probe-positive events, probe versus its isotype negative control", "setting": "[2]; plasma of another MGUS patient, FIG. 6", "value": "higher count of events"}]}]}
